Experimental data from publication PMC11062899, “De novo development of small cyclic peptides that are orally bioavailable” (Nature Chemical Biology, 2023).
“And” between values parts separate entries of the source, which are not always exact repeats. Identical values can stand only once.

How the values were obtained:
[1] = Metabolic stability in rat liver microsomes (RLMs); conditions: rat, microsomes
rat α-thrombin = biological target: T1, rat α-thrombin (Rattus norvegicus, UniProt P18292); test: Protease inhibition, Ki for rat α-thrombin (fluorogenic substrate Z-Gly-Gly-Arg-AMC); assay type: biochemical; conditions: replicates R1-R3
T1 construct: rat α-thrombin (Molecular Innovations) were used at final concentrations of 2 nM and 3 nM; purchased Molecular Innovations
How it was run: (§1)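 Ki values come from Cheng–Prusoff correction of IC50, itself fitted by four-parameter logistic regression of activity versus a no-peptide control. Assays used 2 nM human or 3 nM rat thrombin, 50 μM Z-Gly-Gly-Arg-AMC, 30 min kinetic fluorescence at 25 °C.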

[2] = Passive artificial membrane permeability (PAMPA)
porcine pepsin = biological target: T2, porcine pepsin (Sus scrofa, UniProt P00791); test: Peptide stability in simulated gastric fluid (SGF); assay type: in vitro ADME
T2 construct: 0.32 g of porcine pepsin (Sigma-Aldrich, P7125) was dissolved under gentle agitation; purchased Sigma-Aldrich P7125
T2 sequence (P00791 60-385): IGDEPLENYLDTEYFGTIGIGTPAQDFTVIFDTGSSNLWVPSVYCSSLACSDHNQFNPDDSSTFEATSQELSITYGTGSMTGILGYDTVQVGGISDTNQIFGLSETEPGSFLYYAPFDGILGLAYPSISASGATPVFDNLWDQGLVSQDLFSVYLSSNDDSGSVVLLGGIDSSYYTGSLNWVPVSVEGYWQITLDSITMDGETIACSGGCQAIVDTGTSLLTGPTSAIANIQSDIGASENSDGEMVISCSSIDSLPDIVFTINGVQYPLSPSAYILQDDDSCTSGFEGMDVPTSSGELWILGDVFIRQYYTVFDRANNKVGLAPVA
How it was run: (§2)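 Peptide from a 1 mM DMSO stock was added to fluid pre-warmed at 37 °C. SGF was pH 1.2 NaCl with porcine pepsin (0.32 g per 100 ml), and SIF was pH 6.8 potassium phosphate with porcine pancreatin (1 g per 100 ml). Supernatant peptide was quantified by LC–MS, with residual expressed as T1/T0.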

porcine pancreatin = test: Peptide stability in simulated intestinal fluid (SIF); assay type: in vitro ADME; conditions: after 8 h vs 0 h (TIC); average of R1-R3
How it was run: as §2

[3] = as above; assay type: in vitro ADME, porcine; conditions: simulated gi fluid; 8 h, 37 °C, pH 6.8; read-out: Proteolytic stability: SIF (8 h) % remaining
How it was run: as §2

human α-thrombin = human α-thrombin (Homo sapiens, UniProt P00734); test: Protease inhibition, Ki for human α-thrombin (fluorogenic substrate Z-Gly-Gly-Arg-AMC); assay type: biochemical; conditions: replicates R1-R3
How it was run: as §1

[4] = peptide 1.33E+02 uM, slope of proteolytic substrate cleavage over time

microsomal CLint ([1]; CL (ul/min/mg protein) R1, RLM CL, replicate R1): 79.9 µL/min/mg
microsomal CLint ([1]; CL (ul/min/mg protein) R2, RLM CL, replicate R2): 59.7 µL/min/mg
microsomal CLint ([1]; CL (ul/min/mg protein) R3, RLM CL, replicate R3): 75.2 µL/min/mg
half-life ([1]; Half Life (min) R1, RLM metabolic stability, replicate R1, 0-60 min): 17.3 min
half-life ([1]; Half Life (min) R2, RLM metabolic stability, replicate R2, 0-60 min): 23.2 min
half-life ([1]; Half Life (min) R3, RLM metabolic stability, replicate R3, 0-60 min): 18.4 min
half-life ([1]; Metabolic stability: Half life T1/2 (min), RLMs, mean and SD, three measurements): 19.7 ± 2.5 min
microsomal CLint ([1]; Metabolic stability: RLM CL (ul/min/mg), RLMs, mean and SD, three measurements): 72 ± 9 µL/min/mg
Rat alpha thrombin inhibition, slope normalized to DMSO (rat α-thrombin; [4]): 3.2 and 3.1 and 10.4
Rat alpha thrombin inhibition, slope normalized to DMSO (rat α-thrombin; peptide 1.67E+01 uM): 16.1 and 15.2 and 20.3
Rat alpha thrombin inhibition, slope normalized to DMSO (rat α-thrombin; peptide 2.08E+00 uM): 58.5 and 59.8 and 48.9
Rat alpha thrombin inhibition, slope normalized to DMSO (rat α-thrombin; peptide 3.33E+01 uM): 8.9 (2×) and 15.3
Rat alpha thrombin inhibition, slope normalized to DMSO (rat α-thrombin; peptide 4.17E+00 uM): 40.8 and 42.9 and 35.9
Rat alpha thrombin inhibition, slope normalized to DMSO (rat α-thrombin; peptide 6.67E+01 uM): 5.0 and 4.9 and 12.1
Rat alpha thrombin inhibition, slope normalized to DMSO (rat α-thrombin; peptide 8.33E+00 uM): 24.7 and 27.2 and 32.3
PAMPA permeability: % permeability ([2]; 50 μM, 12–18 h, acceptor concentration relative to equilibrium): 27 ± 1%
Papp at 50 μM ([2]; PAMPA, pH 7.4): 2.14 ×10⁻⁶ cm/s
Permeability% Average ([2]; PAMPA, average of R1-R3): 27.4%
Permeability% R1 ([2]; PAMPA, replicate R1, TIC of top well sample relative to sample at theoretical equilibrium): 28.09%
Permeability% R3 ([2]; PAMPA, replicate R3, TIC of top well sample relative to sample at theoretical equilibrium): 26.42%
SGF stability, Residual peptide Average (porcine pepsin; after 8 h vs 0 h (TIC), average of R1-R3): 90.24
SGF stability, Residual peptide (porcine pepsin; after 8 h vs 0 h (TIC), single replicates R1-R3): 101.78 and 81.27 and 87.66
remaining at 8 h (porcine pepsin; simulated gi fluid, 8 h, 37 °C, pH 1.2, read-out: Proteolytic stability: SGF (8 h) % remaining): 90 ± 10%
SIF stability, Residual peptide Average (porcine pancreatin): 97.68
remaining at 8 h [3]: 98 ± 11%
Human alpha thrombin inhibition, slope normalized to DMSO (human α-thrombin; peptide 1.02E-03 uM): 97.2 and 97.6 and 106.2
Human alpha thrombin inhibition, slope normalized to DMSO (human α-thrombin; peptide 1.04E+00 uM): 103.4 and 89.3 and 97.4
Human alpha thrombin inhibition, slope normalized to DMSO (human α-thrombin; peptide 1.27E-04 uM): 101.8 and 96.4 and 101.4
Human alpha thrombin inhibition, slope normalized to DMSO (human α-thrombin; peptide 1.30E-01 uM): 98.9 and 98.3 and 91.7
Human alpha thrombin inhibition, slope normalized to DMSO (human α-thrombin; [4]): 9.7 and 9.3 and 8.4
Human alpha thrombin inhibition, slope normalized to DMSO (human α-thrombin; peptide 1.63E-02 uM): 113.9 and 97.8 and 107.6
Human alpha thrombin inhibition, slope normalized to DMSO (human α-thrombin; peptide 1.67E+01 uM): 44.4 and 39.7 and 38.9
Human alpha thrombin inhibition, slope normalized to DMSO (human α-thrombin; peptide 2.03E-03 uM): 93.3 and 95.3 and 103.2
Human alpha thrombin inhibition, slope normalized to DMSO (human α-thrombin; peptide 2.08E+00 uM): 83.8 and 81.0 and 85.8
Human alpha thrombin inhibition, slope normalized to DMSO (human α-thrombin; peptide 2.54E-04 uM): 101.0 and 97.7 and 100.6
Human alpha thrombin inhibition, slope normalized to DMSO (human α-thrombin; peptide 2.60E-01 uM): 90.3 and 93.2 and 100.5
Human alpha thrombin inhibition, slope normalized to DMSO (human α-thrombin; peptide 3.18E-05 uM): 99.8 (2×) and 101.6
Human alpha thrombin inhibition, slope normalized to DMSO (human α-thrombin; peptide 3.26E-02 uM): 100.2 and 97.8 and 102.0
Human alpha thrombin inhibition, slope normalized to DMSO (human α-thrombin; peptide 3.33E+01 uM): 26.4 and 25.5 and 27.5
Human alpha thrombin inhibition, slope normalized to DMSO (human α-thrombin; peptide 4.07E-03 uM): 95.7 and 98.6 and 101.8
Human alpha thrombin inhibition, slope normalized to DMSO (human α-thrombin; peptide 4.17E+00 uM): 69.5 and 72.8 and 72.6
Human alpha thrombin inhibition, slope normalized to DMSO (human α-thrombin; peptide 5.09E-04 uM): 102.0 and 99.0 and 102.1
Human alpha thrombin inhibition, slope normalized to DMSO (human α-thrombin; peptide 5.21E-01 uM): 99.3 and 95.3 and 96.7
Human alpha thrombin inhibition, slope normalized to DMSO (human α-thrombin; peptide 6.36E-05 uM): 99.5 and 97.8 and 101.1
Human alpha thrombin inhibition, slope normalized to DMSO (human α-thrombin; peptide 6.51E-02 uM): 101.0 and 91.1 and 103.2
Human alpha thrombin inhibition, slope normalized to DMSO (human α-thrombin; peptide 6.67E+01 uM): 19.9 and 15.0 and 20.8
Human alpha thrombin inhibition, slope normalized to DMSO (human α-thrombin; peptide 8.14E-03 uM): 100.5 and 116.6 and 101.1
Human alpha thrombin inhibition, slope normalized to DMSO (human α-thrombin; peptide 8.33E+00 uM): 63.9 and 57.2 and 56.3
SMILES: C[C@@H]1NC(=O)[C@@H](NC(=O)c2ccc(Cl)s2)CSCc2cccc(n2)CSCCNC(=O)[C@H]2CCCN(C2)C1=O [compound 30]
